Test results published in US20160206579A1 (INSERM (Institut National de la Santé et de la Recherche …, priority 2009, published 2016).

Tests used:
[1] = system: RGCs in rat retinal explants; assay: NMDA-treated retinal explants, Brn-3a-immunopositive RGC density on flat-mounts; conditions: for RGC density (Brn-3a-immunopositive): mean±s.e.m.
Experimental: E) Quantification of RGC densities from whole flat-mounted retinal explants using the automated counting platform. […] The scale bar represents 100 μm.
At the end of the incubation, RGCs were immunolabeled with an anti-Brn-3a antibody.

retinal ganglion cells [2] = assay: Retinal ganglion cell degeneration induced by vigabatrin in young rats, Brn3A-positive RGC count in retinal sections; assay type: in vivo, Wistar rats
Experimental: Breeds of Wistar rats Rj Wi IOPS Han were purchased from Janvier (Le Genest-St-Isle, France). Vigabatrin (VGB) dissolved in 0.9% NaCl was administered at 0.6 mg/jour (6 mg/ml, 0.1 ml) to rats by daily intraperitoneal injection for 25 days from age 4 days. These daily doses (50 mg/kg for rats of 12 g) are in-line with those described for the treatment of epilepsy (adult patients: […]; children:50-75 mg/kg; or infants: 100-150 mg/kg) (Aicardi et al., 1996; Chiron et al., 1997; Lux et al., 2004).
Animals were anesthetized by intraperitoneal injection (0.8 to 1.2 ml/kg) of a solution containing ketamine (40 mg/ml) and xylazine (4 mg/ml Rompum). They were then perfused first with heparin 1000 UI/ml in saline solution (0.9% NaCl), then with fixative containing 4% Paraformaldehyde (Merck chemicals ref.: 100496) and 0.2% glutaraldehyde (fluka 25%). Eye cups were isolated and fixed overnight at 4° C. in 4% (wt/vol) paraformaldehyde in phosphate buffered saline (PBS; 0.01M, pH 7.4). The tissue was cryoprotected in successive solutions of PBS containing 10%, 20% and 30% sucrose at 4° C., oriented along the dorso-ventral axis and embedded in OCT (Labonord, Villeneuve d'Ascq, France). Retinal sections (8-10 μm thickness) were permeabilised for five minutes in PBS containing 0.1% Triton X-100 (Sigma, St. Louis, Mo.), rinsed, and incubated in PBS containing 1% bovine serum albumin (Eurobio, Les-Ulis, France), 0.1% Tween 20 (Sigma), and 0.1% sodium azide (Merck, Fontenay-Sous-Bois, France) for two hours at room temperature. The primary Brn3A monoclonal antibody (Chemicon) was added to the solution and incubated for two hours at room temperature. Sections were rinsed and then incubated with the secondary antibody, rabbit anti-mouse IgG conjugated to either Alexa™594 (1:500, Molecular Probes) for two hours. […] Quantifications were achieved on whole vertical sections cut along the dorso-ventral axis and crossing the optic nerve. […]

optic nerve = conditions: treated infants; Frisen and Malmgren 2003, Viestenz et al. 2003, Buncic et al. 2004; cited from earlier work
[3] = system: glutamate N-methyl-D-aspartate (NMDA) receptors; conditions: Seki M et al., 2008; cited from earlier work
retinal ganglion cells [4] = assay: DBA/2J mice, model of pigmentary glaucoma (taurine plasma level, photopic ERG); assay type: in vivo; conditions: 12-month old DBA/2J mice, taurine supplementation for 4 months vs pure water
Experimental: Photopic ERGs were performed on cauterized and control eyes from rats and DBA2/J mice. Animals were anesthetized by an intramuscular injection with a solution containing a mixture of Ketamine (100 mg/Kg) and, Xylazine (10 mg/Kg). Pupils were dilated by a topical application of Mydriaticum, Laboratoires Thea, Clermont-Ferrand, France). ERG were recorded using two gold loop electrodes were placed on the corneal surface of each eye and maintained with 3% Ocry-gel. These recording electrodes were respectively referenced with two steel electrodes, inserted sub-cuteanously at the level of each cheek of animals. A needle electrode, also inserted sub-cuteanously, at the level of the basis of the tail served as ground. Responses to light stimulus were amplified, filtered and digitalized using the “Multiliner vision” program.
Statistical analysis of the results was performed on raw data. An unpaired student t test was used to compare means of 2 groups. For more than 2 groups compared, a one-way ANOVA was used for variance analysis, followed in case of significance by a Bonferroni post-hoc test to compare the means of each group. Differences were considered significant at *P<0.05; **P<0.01; and ***P<0.001.

retinal ganglion cells [5] = assay: Episcleral vein occlusion rat model of glaucoma (taurine plasma level, IOP, photopic ERG, Brn-3a RGC count); assay type: in vivo, Long-Evans rats; conditions: taurine 0.2 M in drinking water, 3 months after occlusion, vs water animals; statistically significant
Experimental: Long-Evans rats (8-week old) were purchased from Janvier (Le Genest-St-Isle, France) whereas DBA/2J mice (8-month old) were purchased from Charles River (Larbresle, France). Heterozygous P23H rats (line 1) and Sprague Dawley rats (n=7) were bred at Charles River (Saint Aubin-les-Elbeuf, France).
Occlusion of episcleral veins was performed on 8 week-old Long-Evans or Wistar rats as described previously (Mittag et al., 2000). Animals were anesthetized with a mixture Ketamine (100 mg/Kg; Virbac, France) and, Xylazine (10 mg/Kg; Bayer, Leverkusen, Germany), and a local anesthesia (Tetracaine, Laboratoires TVM, Lempdes, France) were administrated on the cornea. At the level of the right eye, three episcleral veins, superonasal, superotemporal and inferotemporal, were emerged by removing the conjunctive tissue. Vein occlusion was realized by cauterization, using Aesculap® bipolar forceps (B. Braun, Melsungen, Germany). […]
IOP was measured from right and left eyes on awake animals using a Tonolab tonometer (Icare, Helsinki, Finland). The tonometer was applied perpendicularly to the cornea and three successive measures were recorded and the average was taken for the final value of IOP.
Photopic ERGs were performed on cauterized and control eyes from rats and DBA2/J mice. […] ERG were recorded using two gold loop electrodes were placed on the corneal surface of each eye and maintained with 3% Ocry-gel. […]

retinal ganglion cells [6] = assay: P23H rat model of retinitis pigmentosa, Brn3a immunopositive RGC count in retinal sections; assay type: in vivo, heterozygous P23H rats
Description: Long-Evans rats (8-week old) were purchased from Janvier (Le Genest-St-Isle, France) whereas DBA/2J mice (8-month old) were purchased from Charles River (Larbresle, France). Heterozygous P23H rats and Sprague Dawley rats (n=7) were bred at Charles River (Saint Aubin-les-Elbeuf, France). For taurine supplementation, animals were divided in two groups: a control group and a group receiving taurine in its drinking water. […] Animals drinking water without added taurine were always considered as control animals.
Animals were anesthetized and killed by cerebral dislocation and their eyes were removed and placed into a fixative solution containing 4% paraformaldehyde (Merck chemicals, Darmstadt, Germany) for 24 hours. Eye cups were isolated and cryoprotected in successive solutions of PBS containing 10%, 20% and 30% sucrose at 4° C., oriented along the dorso-ventral axis and embedded in NEG50® (Microm, Francheville, France). Retinal sections were permeabilized for five minutes in PBS containing 0.1% Triton X-100 (Sigma, St. Louis, Mo.), rinsed, and incubated in PBS containing 1% bovine serum albumin (Sigma) and 0.05% Tween 20 (Sigma) for one hour at room temperature. […] Quantifications were achieved on whole vertical sections cut along the dorso-ventral axis and crossing the optic nerve. […]

[7] = system: pure adult rat RGC in culture; assay: Survival of pure cultured retinal ganglion cells (live-dead viability test, 6 DIV vs 1 DIV); assay type: cell-based, Long Evans rat; conditions: 1 mM taurine, 6 days in culture
Description: Primary cultures of pure ganglion cells: Primary cultures of retinal ganglion cells (RGC) were isolated from retinae of adult Long Evans rat (8-week old) with an immunopanning technique, according the protocol previously described in young rats by Barres et al. (1988). Briefly, animals were anesthetized and killed by cerebral dislocation and their eyes removed and placed in a solution of phosphate-buffered saline (PBS) containing 1 g/1 of glucose (PBS-glucose; Invitrogen, Carlsbad, Calif., USA). After one rinse in PBS-glucose, retinae were incubated in the same medium containing 33 UI/ml of papain (Worthington, Lakewood, N.J., USA) and 200 UI/ml of DNAse (Sigma-Aldrich, St-Louis, MO, USA) for 30 min at 37° C. They were then rinsed in PBS-glucose, containing 0.15% ovomucoid (Roche Diagnosis, Basel, Switzerland) and 0.15% bovine serum albumin (BSA; Sigma-Aldrich). […]
RGC viability was assessed with the “lived-dead” test (Invitrogen), which consists in labelling viable cells with calcein AM detected as a green fluorescence, whereas dead cell were labelled with ethidium producing a red fluorescence. […] Only lived RCG were counted from seven fields taken on each coverslip using a microscope (Leica DM 5000B, Solms, Germany) equipped for epifluorescence. Viable RCG were counted at 1 day in vitro (DIV) and 6 DIV to calculate the percentage of cell survival.

CN[C@H](CC(=O)O)C(=O)O [NMDA, N-methyl-D-aspartate, reference compound]
RGC density (Brn-3a-immunopositive) ([1]; 100 μM NMDA for 4 days, control 996.0±26.5, n=31): 555.6±31.8 cells/mm2 | reduction in RGC density vs control ([1]; 100 μM NMDA for 4 days, p<0.001): −44%

C=CC(N)CCC(=O)O (stereo not drawn) [VGB, Vigabatrin]
decrease in number of retinal ganglion cells vs control (retinal ganglion cells [2]; young rats treated with VGB, p<0.001): 56% | number of retinal ganglion cells (Brn3A-positive, retinal sections) (retinal ganglion cells [2]; young rats, VGB 0.6 mg/day i.p. for 25 days from age 4 days, control 15.06±0.93, s.e.m., n=10): 6.56±0.32 | optic nerve atrophy (optic nerve): induced an optic nerve atrophy

CC12CC3CC(C)(C1)CC(N)(C3)C2 [memantine]
RGC neuroprotection in models of glaucoma [3]: exert an RGC neuroprotection

NCCS(=O)(=O)O [taurine, 2-aminoethanesulfonic acid]
number of retinal ganglion cells greater than in VGB-treated group without supplementation (retinal ganglion cells [2]; VGB-treated rats with taurine supplementation, p<0.001): 84.9% | decrease in photopic ERG amplitudes (retinal ganglion cells [4]): partially prevented | decrease in photopic ERG amplitudes on operated eye (retinal ganglion cells [5]): less important than in animals without taurine supplementation | average RGC number (brn3a immunopositive, retinal sections) (retinal ganglion cells [6]; taurine 0.1 M in drinking water from 9 to 12 months, n=6, untreated P23H 298±12, Sprague-Dawley control 411±19, mean±SEM): 344±8 | RGC loss prevented (retinal ganglion cells [6]; taurine 0.1 M in drinking water, P<0.01 vs untreated P23H): 40% | cell loss rescued by co-incubation with NMDA ([1]; 100 μM NMDA plus 1 mM taurine for 4 days): 22% | RGC density (Brn-3a-immunopositive) ([1]; 100 μM NMDA plus 1 mM taurine for 4 days, n=23, p<0.05 vs NMDA): 655.7±44.4 cells/mm2 | increase in number of surviving cells vs control conditions [7]: 49% | RGC survival at 6 DIV as percentage of that at 1 DIV ([7]; control conditions 18.2±1.8%, mean±SEM): 27.2±3.7%
